Experimental data taken from ChEMBL document CHEMBL3739335, “Phosphonooxymethyl Prodrug of Triptolide: Synthesis, Physicochemical Characterization, and Efficacy in Human Colon Adenocarcinoma and Ovarian Cancer Xenografts” (J Med Chem, 2015).

How the values were obtained:
[1] = target: T1, Alkaline phosphatase, tissue-nonspecific isozyme (Bos taurus, UniProt P09487); experiment: Drug level in glycine buffer treated with Sodium (((5bS,6aS,7aR,8R,8aS,9aS,9bS,10aS,10bS)-8a-Isopropyl-10b-methyl-3-oxo-1,2,3,5,5b,6,6a,8,8a,9a,9b,10b-dodecahydrotris-(oxireno)[2',3':4b,5;'',3'':6,7;2''',3''':8a,9]phenanthro[1,2-c]furan-8-yl)oxy)methyl Phosphate at pH 9.8 in presence of bovine intestinal mucosal alkaline phosphatase; settings: cattle, isolated protein
T1 sequence (P09487 whole entry): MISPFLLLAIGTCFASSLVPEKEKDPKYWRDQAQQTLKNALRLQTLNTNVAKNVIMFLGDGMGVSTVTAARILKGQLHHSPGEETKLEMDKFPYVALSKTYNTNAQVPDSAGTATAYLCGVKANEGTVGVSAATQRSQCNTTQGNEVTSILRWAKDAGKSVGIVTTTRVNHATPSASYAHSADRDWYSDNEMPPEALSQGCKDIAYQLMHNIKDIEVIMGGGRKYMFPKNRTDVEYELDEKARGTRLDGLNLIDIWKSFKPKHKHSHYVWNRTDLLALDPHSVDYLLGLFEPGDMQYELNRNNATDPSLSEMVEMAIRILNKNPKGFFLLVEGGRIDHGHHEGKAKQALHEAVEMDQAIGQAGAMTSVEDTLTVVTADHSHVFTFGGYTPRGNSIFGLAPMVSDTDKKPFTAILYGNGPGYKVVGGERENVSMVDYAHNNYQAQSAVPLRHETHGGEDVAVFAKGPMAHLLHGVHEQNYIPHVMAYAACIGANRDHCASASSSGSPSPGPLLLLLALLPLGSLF

[2] = Half life of the compound

SMILES | Drug metabolism [1] | half-life [2]
CC(C)[C@]12O[C@H]1[C@@H]1O[C@]13[C@]1(O[C@H]1C[C@H]1C4=C(CC[C@@]13C)C(=O)OC4)[C@@H]2O [TRIPTOLIDE] | metabolite_detected | –
C=O [FORMALDEHYDE] | metabolite_detected | 1.5 min
